Results reported in patent publication US8618080B2, “Immunomodulatory compounds and treatment of diseases related to an overproduction of inflammatory cytokines” (OM Pharma, priority 2006, dated 2013).

Legend:
human CD4+ T cells = assay: Cytokine production and proliferation of naïve CD4+ T cells stimulated with anti-CD3 and anti-CD28; assay type: cell-based; settings: 0.02-20 μg/ml
Method: A series of four compounds of the present invention (OM-197-MP-AC, OM-197-MC-HD, OM-294-BA-MP, OM-197-MP-HD) were tested directly as summarized below:
Naïve CD4^+ T cells were magnetically sorted from healthy blood donor (buffy coat). The cells were stimulated in the presence or not of graded doses of triacyl derivatives (0.02; 0.2; 2 and 20 μg/ml) using plate-bound anti-CD3 (5 μg/ml) and soluble anti-CD28 (1 μg/ml). After 6 days, cytokine levels (IFN-γ and IL-13) were tested in the culture supernatants using ELISA.
FIGS. 3A-3D: Effect of increasing doses of the four compounds tested (OM-197-MP-AC, n=5; OM-197-MC-HD, n=5; OM-294-BA-MP, n=7; OM-197-MP-HD, n=3) on IFN-γ and IL-13 production of human CD4^+ T cells following a polyclonal activation. Results are expressed as the median (±p25/p75) of n independent experiments and show the percentage (%) proliferation or cytokine production of treated cells versus untreated cells (considered as 100%, see dotted line). The statistical analysis was performed using a nonparametric unpaired Mann-Whitney t test (2-tailed).

[1] = tested on: LACK-sensitized and challenged mice; assay: LACK-induced allergic asthma model, therapeutic i.p. treatment; assay type: in vivo
Method: The main differences compared to the previous (part a) protocol are: • Mice were treated with OM-197-MP-AC i.p. only on days 15, 17 and 19 (i.e. at least 1 week after the second sensitization) at the dose of 1 mg/Kg (20 μg per mouse). • The lung cytokines measured by multiplex analysis using FACSArray were IL-4, IL-5, IL-13, IFN-γ, and IL-10. Results: Total Cell Number and Eosinophils in BAL:
Two days after the last aerosol, mice were sacrificed and BAL cells harvested.
In order to further characterize the immune status of mice after therapeutic treatment with OM-197-MP-AC, we analyzed LACK-specific IgE in sera of treated mice and in those of untreated mice by ELISA. Whereas LACK-specific IgE levels increased 7-fold upon exposition to LACK aerosols, sera of OM-197-MP-AC-treated mice contained 2-fold less (p<0.05) LACK-specific IgE compared to untreated LACK challenged mice.
FIG. 8: Mice were therapeutically treated three times as described in the method section, lavages were performed in individual mice bled with a canula inserted into their trachea. Lungs were washed 3 times with 1 ml of warmed PBS. Cells were washed with PBS, resuspended in 300 μl, and counted using a Burker-Türk chamber. For differential BAL cell counts, cytospin preparations were made and stained with Wright/Giemsa coloration. The groups tested were: LACK-sensitized and PBS-challenged wt mice (Control), LACK-sensitized and challenged wt mice (Asthma), and OM-197-MP-AC-treated wt mice (OM-197). The total cell number in BAL was determined by microscopic examination of cytospin preparations stained with Wright/Giemsa coloration. The dotted line indicates throughout the graph the value obtained in untreated asthmatic animals.
FIG. 9: Percentage of eosinophils in BAL analyzed by microscopic examination of cytospin preparations stained with Wright/Giemsa coloration. Mice were therapeutically treated three times as described in the method section, cells from BAL were harvested as explained in FIG. 8. The (therapeutic) groups studied are the same as those used in FIG. 8. The dotted line indicates throughout the graph the value obtained in untreated asthmatic animals.
FIG. 10: To analyze lung cytokine contents, lungs were harvested and left lungs were used to prepare protein extracts. 400 μl were recovered for each left lung. Cytokines were measured by multiplex analysis using FACSArray, and results are given in pg/ml. The (therapeutic) groups studied are the same as those used in FIGS. 8 and 9. The dotted lines indicate throughout the graphs the values obtained in untreated asthmatic animals.

[2] = 1 mg/Kg i.p. therapeutic, versus untreated mice

Q: Which T cell proliferation (human CD4+ T cells) does the source give for `CCCCCCCCCCCC(=O)O[C@H](CCCCCCCCCCC)CC(=O)N[C@@H](CCOP(=O)(O)O)C(=O)NCCC[C@H](COC(=O)CCCCCN)NC(=O)C[C@H](O)CCCCCCCCCCC` [OM-197-MP-AC, (3S, 9R)-3-[(R)-3-dodecanoyloxytetradecanoylamino]-4-oxo-5-aza-9-[(R)-3-hydroxytetradecanoylamino]-decan-1, 10-diol 1-dihydrogenophosphate 10-(6-aminohexanoate)] here?
A: Its T cell proliferation is “unaffected”.

Q: And the “IFN-γ production by CD4+ T cells” value (human CD4+ T cells; 6 days, ELISA)?
A: The value was “unaffected”.

Q: What about the “IL-13 production by CD4+ T cells” value (human CD4+ T cells; 6 days, ELISA) of the same molecule?
A: The value was “reduced”.

Q: And the “Eosinophils in BAL, less than untreated mice” value ([1]; 1 mg/Kg i.p. on days 15, 17, 19 (therapeutic))?
A: Its value is 40-45 fold less.

Q: What about the “BAL cell recruitment impaired” value ([1]; 1 mg/Kg i.p. on days 15, 17, 19 (therapeutic), versus untreated mice) of the same molecule?
A: Its value is 90%.

Q: And the “Lung IFN-γ levels, treated versus untreated mice” value ([1]; 1 mg/Kg i.p. therapeutic)?
A: The value was “reduced”.

Q: What about the “Lung IL-10 amounts upon treatment” value ([1]; 1 mg/Kg i.p. therapeutic) of the same molecule?
A: Its value is “not significantly increased”.

Q: And the “LACK-specific IgE in sera, less than untreated LACK challenged mice” value ([1]; 1 mg/Kg i.p. therapeutic, ELISA)?
A: The value was 2 fold less.

Q: And the “Lung IL-4 levels reduced” value [1, 2]?
A: Its value is 90%.

Q: And the “Lung IL-5 amounts reduced” value [1, 2]?
A: Its value is 70%.

Q: And the “Lung IL-13 amounts reduced” value [1, 2]?
A: Its value is 85%.
